Data from ChEMBL document CHEMBL2331314, “Dorsamin-A's, glycerolipids carrying a dehydrophenylalanine ester moiety from the seed-eating larvae of the bruchid beetle Bruchidius dorsalis” (J Nat Prod, 2013).

Assay: Antioxidant activity assessed as concentration required to 50 % ABTS radical scavenging activity absorbance at 734 nm
Assay type: functional

SMILES | Activity [µM]
COC(=O)/C=C/c1ccccc1 | > 1000
Cc1c(C)c2c(c(C)c1O)CCC(C)(C(=O)O)O2 (stereo not given) | 19
COC(=O)/C(N)=C/c1ccccc1 | 9.6
CCCCCCCC/C=C/CCCCCCCC(=O)OC[C@H](COC(=O)/C(N)=C/c1ccccc1)OC(=O)CCCCCCC/C=C/CCCCCCCC | 11
COC(=O)C(=O)Cc1ccccc1 | 8.8
